{"source": "patent US20220339135A1", "about": "“COMPOSITIONS AND METHODS FOR MODULATING AN INFLAMMATORY RESPONSE” (Enzychem Lifesciences Corporation, priority 2019, published 2022)", "key": {"[1]": {"system": "ADORA2A on the surface of HaCaT cells", "assay": "IMQ-induced ADORA2A trafficking, confocal microscopy", "format": "cell-based", "settings": "IMQ 5 μg/ml after PLAG 100 μg/ml 1 hour", "protocol": "HaCaT cells were divided into two groups: 1) IMQ treated group and 2) IMQ/PLAG treated group. For IMQ treated group, cells were stimulated with IMQ (5 μg/ml) for 0, 2.5, 5, 7.5, 10, 15, 30, 60, 120 minutes. For IMQ/PLAG treated group, cells were pre-incubated with PLAG (100 μg/ml) for 1 hour and then stimulated with IMQ (5 μg/ml) for 0, 2.5, 5, 7.5, 10, 15, 30, 60, 120 minutes. (A) To detect ADORA2A on the membrane surface, cells were fixed with 2% paraformaldehyde (Sigma-Aldrich) and were blocked with PBS containing 1% BSA (Gibco, Waltham, Mass., USA). They were incubated with rabbit anti-ADORA2A antibody (Thermo) and Alexa488 conjugated anti-rabbit IgG (Invitrogen) without permeabilization. (B) To detect intracellular ROS, cells were treated with FITC conjugated-CM-H2DCFDA (Invitrogen, Carlsbad, Calif., USA) for 30 min before PLAG treating. For confocal microscopy analysis, cells were washed with PBS and mounted in DAPI-containing fluorescence microscopy mounting medium (Invitrogen). Samples were analyzed with a laser scanning confocal microscope (Carl Zeiss, Oberkochen, Germany)."}, "[2]": {"system": "MIP-2, IL-6, CXCL8 in RAW 264.7 or HaCaT cells", "assay": "IMQ-induced chemokine release, ELISA", "format": "cell-based", "settings": "PLAG 1, 10, 100 μg/ml, IMQ 12 hours, dose-dependent", "protocol": "RAW 264.7 or HaCaT cells were divided into three groups: 1) control (non-treated) group, 2) IMQ treated group, and 3) IMQ/PLAG treated group. For IMQ treated group, cells were treated with 1, 10, 100 μg/ml of DMSO (as solvent control) for 1 hour and treated with 5 μg/mL of IMQ for 12 hours. For IMQ/PLAG treated group, cells were treated with 1, 10, 100 μg/ml of PLAG for 1 hour and treated with 5 μg/mL of IMQ for 12 hours. MIP-2 (A), IL-6 (B) and CXCL8 (C) in the culture supernatants were analyzed with the cognate antibody using ELISA kit. Modulation of CXCL8 expression in the IMQ treated HaCaT cells by MAPK inhibitors, SCH 772984 (ERK inhibitor, (D)), SP600125 (JNK inhibitor, (E)) and SB203580 (p38 inhibitor, (F)) was evaluated using ELISA kit (BD bioscience, New Jersey, USA) according to the manufacturer's instructions. The cytokine levels were estimated by interpolation from a standard curve using an ELISA reader (Molecular Devices, Sunnyvale, USA) at 450 nm."}, "[3]": {"system": "total body irradiation by γ-ray", "assay": "Survival rate and body weight of γ-ray radiated mice", "format": "in vivo", "protocol": "11 weeks Balb/c mice (10 males and 10 females) were divided into two groups: 1) radiated group (6.5Gy of TBI by γ-ray) and 2) PLAG (250 mg/kg of PLAG) administrated group with radiation (6.5Gy of TBI by γ-ray) (FIG. 39A). 6.5Gy of TBI was radiated on Day 0 and 250 mpk of PLAG was orally administrated from day 0 to day 30 daily. The survival rate of the mice was recorded daily until day 30.\n(§1) 11 weeks Balb/c mice (10 males and 10 females) were divided into four groups: 1) radiated group (6.11Gy of TBI by γ-ray), 2) PLAG (10 mg/kg of PLAG) administrated group with radiation (6.11Gy of TBI by γ-ray), 3) PLAG (50 mg/kg of PLAG) administrated group with radiation (6.11Gy of TBI by γ-ray), and 4) PLAG (250 mg/kg of PLAG) administrated group with radiation (6.11Gy of TBI by γ-ray) (FIG. 40A). 6.11Gy of TBI was radiated on Day 0 and […] of PLAG was orally administrated from day 1 to day 30 daily. The survival rate of the mice, was recorded daily until day 30.\nas §1, with “by γ-ray).” for “by γ-ray) (FIG. 40A).”, “Day 0,” for “Day 0”, “daily. Body weight” for “daily. The survival rate”, “the mice” for “the mice,”"}}, "data": [{"smiles": "CCCCC/C=C\\C/C=C\\CCCCCCCC(=O)OC(COC(C)=O)COC(=O)CCCCCCCCCCCCCCC", "note": "(racemic) [PLAG, 1-palmitoyl-2-linoleoyl-3-acetylglycerol]", "values": [{"measurement": "GPCR (ADORA2A) returns to its membrane", "setting": "[1]", "result": 10, "unit": "min"}, {"measurement": "GPCR (ADORA2A) trafficking starts", "setting": "[1]", "result": 2.5, "unit": "min"}, {"measurement": "MIP-2, IL-6, CXCL8 induced by IMQ", "setting": "[2]", "result": "gradually decreased"}, {"measurement": "number of mice whose body weight loss is more than 10% and 20%", "setting": "[3]; 6.11Gy TBI, 50mpk and 250 mpk", "result": "significantly less number"}, {"measurement": "body weight after radiation", "setting": "[3]; 6.11Gy TBI, PLAG 10 mg/kg", "result": "fluctuating and decreasing bodyweight"}, {"measurement": "survival rate after 30 days of radiation", "setting": "[3]; 6.11Gy TBI, PLAG 10 mg/kg", "result": 5, "unit": "%"}, {"measurement": "body weight loss", "setting": "[3]; 6.11Gy TBI, PLAG 50 mg/kg", "result": "less than 10%"}, {"measurement": "survival rate after 30 days of radiation", "setting": "[3]; 6.11Gy TBI, PLAG 50 mg/kg", "result": 40, "unit": "%"}, {"measurement": "body weight loss", "setting": "[3]; 6.11Gy TBI, PLAG 250 mg/kg", "result": "less than 10%"}, {"measurement": "survival rate after 30 days of radiation", "setting": "[3]; 6.11Gy TBI, PLAG 250 mg/kg", "result": 80, "unit": "%"}, {"measurement": "survival rate relative to the radiated group", "setting": "[3]; 6.5Gy TBI, PLAG 250 mg/kg", "result": 12, "unit": "times"}, {"measurement": "survival rate 30 days after radiation", "setting": "[3]; 6.5Gy TBI, PLAG 250 mg/kg daily day 0-30", "result": 60, "unit": "%"}]}]}
